Assay results published in US20050239051A1, “Use of isogenic human cancer cells for high-throughput screening and drug discovery” (The Johns Hopkins University, priority 2001, published 2005).

Columns and labels:
mutant-RAS cell line = assay: Growth inhibition assay with parental non-GFP cell lines plated separately, PicoGreen (FIG. 6); assay type: cell-based, human; conditions: range of concentrations, five days
Protocol: FIG. 6. Structure/activity ratios (SAR's) of compounds with structural homology to TPT. Growth inhibition assays were performed using parental (non-GFP modified) cell lines. Cells were plated separately at low density in 96 well plates and exposed to a range of test drug concentrations for five days. Cells were then lysed in H2O, and lysates assayed for relative cell number using the dsDNA-binding dye (PicoGreen).
Secondary screens on primary screen hits were performed as above except that a drug concentration range was used, typically extending from 30 ng/ml to 4 μg/ml. […] Assays using non-GFP modified cell lines were performed using cells plated separately rather than co-cultured. Plates were harvested each day for assessment of cell number using either an MTT assay or using the DNA-binding dye PicoGreen (Molecular Probes, Eugene, Oreg.). MTT assays were performed according to the manufacturers instructions (Trevigen, Gaithersburg, Md.). PicoGreen assays were performed by lysing cells in 96-well plates in 200 μl H2O, triturating and then transferring a 10 μl aliquot from each well to […] of PigoGreen solution (# P-7581) diluted to 0.5% vol/vol in Tris-EDTA (TE) buffer.

[1] = system: downstream components of the RAS pathway; conditions: previously shown (Cardenas 1998; Campbell 1994); cited from earlier work
[2] = system: KO cells (DKS-8, mutant c-Ki-Ras allele deleted); assay: Co-culture fluorescence growth inhibition screen, KO cells (YFP); assay type: cell-based, human; conditions: concentration and time course experiments, co-cultured cells (FIG. 5)
From the text: (§1) FIG. 1. Schematic of drug screening format using co-cultured isogenic cells modified with spectrally distinct green fluorescent protein (GFP) variants. DLD-1 cells, harbouring a mutant c-Ki-RAS allele plus a wild-type (wt) c-Ki-RAS allele, were modified to stably express a GFP variant that is excited at 530 nm (YFP). An isogenic clone (KO) in which only the mutant c-Ki-RAS allele has been deleted (Adegboyega et al., Arch. Pathol. Lab. Med., 121:1063-68, 1997) was modified to express a GFP variant that is excited at 390 nm (BFP). These cells were mixed and plated at low density in 96-well plates. […] Plates were assayed every day for six days using a fluorescence plate reader to obtain growth curves for each cell line in every well of the plate.
(§2) FIG. 5. […] Growth curves were obtained from fluorescence at 390ex/508em (DLD-1) and 530ex/590em (KO). […]
(§3) Fluorescent cell lines were harvested by trypsinization and resuspended together as a mixture containing 22,000 cells/ml (DLD-1) and 18,000 cells/ml (KO) in DMEM media supplemented with 10% FCS (HyClone, Logan, Utah). […] Each well of column 1 contained […] of the growth medium without cells as a control for computing background fluorescence. […] Fluorometry data from each day's read were exported to a custom program (Drugmobile) for plotting the growth curves of each cell line in each well of the 96-well plate. […]

c-Raf-1 = c-Raf-1 (Homo sapiens, UniProt P04049); assay: In vitro kinase assay, c-Raf-1; assay type: biochemical; conditions: in vitro kinase assays (data not shown)
From the text: (§4) No anti-proliferative activity has previously been described for TPT. Tetrazole compounds such as TPT are commonly used as histological reagents that are reduced by cellular dehydrogenases in viable cells to a coloured formazan dye (Adegboyega et al., Arch. Pathol. Lab. Med., 121:1063-68, 1997, Otero et al., Cytotechnology, 6:137-42, 1991). However, no obvious staining of cells was observed using TPT at the concentrations used in the present assays. […] A previously identified inhibitor of p38 mitogen activated kinase (SB203580) (Cuenda et al., FEBS Lett., 364:229-33, 1995, Liverton et al., J. Med. Chem., 42:2180-90, 1999) was also noted to be structurally similar to TPT (FIG. 6). […] It is therefore unclear whether kinases represent cellular targets for TPT.

p38 = p38 (Homo sapiens, UniProt Q16539); assay: In vitro kinase assay, p38; assay type: biochemical; conditions: in vitro kinase assays (data not shown)
From the text: as §4

[3] = system: DLD-1 cells (mutant c-Ki-Ras); assay: Co-culture fluorescence growth inhibition screen, DLD-1 cells (BFP); assay type: cell-based, human
From the text: as §1, §2, §3

c-Jun kinases = assay: In vitro kinase assay, c-Jun kinases; assay type: biochemical; conditions: in vitro kinase assays (data not shown)
From the text: as §4

Chain of p38 (Q16539 whole entry): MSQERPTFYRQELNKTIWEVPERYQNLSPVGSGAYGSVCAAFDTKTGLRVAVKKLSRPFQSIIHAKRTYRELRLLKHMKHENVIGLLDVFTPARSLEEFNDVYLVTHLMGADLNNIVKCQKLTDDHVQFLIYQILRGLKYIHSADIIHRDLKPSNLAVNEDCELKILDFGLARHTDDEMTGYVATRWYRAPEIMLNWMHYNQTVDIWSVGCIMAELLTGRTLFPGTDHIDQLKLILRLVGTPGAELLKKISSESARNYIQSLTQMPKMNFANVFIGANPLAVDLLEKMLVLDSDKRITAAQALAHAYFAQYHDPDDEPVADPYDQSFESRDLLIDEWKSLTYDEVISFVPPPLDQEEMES
Chain of c-Raf-1 (P04049 whole entry): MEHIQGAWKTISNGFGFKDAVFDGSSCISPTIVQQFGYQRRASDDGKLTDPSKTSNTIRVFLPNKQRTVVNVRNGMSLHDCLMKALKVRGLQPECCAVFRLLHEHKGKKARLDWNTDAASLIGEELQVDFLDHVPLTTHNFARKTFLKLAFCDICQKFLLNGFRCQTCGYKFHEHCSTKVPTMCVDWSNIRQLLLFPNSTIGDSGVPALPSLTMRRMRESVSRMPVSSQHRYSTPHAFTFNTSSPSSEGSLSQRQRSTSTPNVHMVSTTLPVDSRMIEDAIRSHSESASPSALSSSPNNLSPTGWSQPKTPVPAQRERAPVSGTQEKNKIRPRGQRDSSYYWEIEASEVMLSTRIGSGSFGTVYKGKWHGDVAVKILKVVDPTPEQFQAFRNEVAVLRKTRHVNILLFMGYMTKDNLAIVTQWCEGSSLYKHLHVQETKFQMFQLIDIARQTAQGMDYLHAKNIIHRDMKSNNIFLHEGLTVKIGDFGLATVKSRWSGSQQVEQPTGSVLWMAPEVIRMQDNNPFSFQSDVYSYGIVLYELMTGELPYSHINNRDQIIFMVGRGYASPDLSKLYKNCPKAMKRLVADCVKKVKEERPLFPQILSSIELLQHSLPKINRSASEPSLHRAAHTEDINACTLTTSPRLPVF

C[S+]([O-])c1ccc(-c2nc(-c3ccncc3)c(-c3ccc(F)cc3)[nH]2)cc1 (centres unmarked) [SB203580]
selectivity towards the mutant RAS-containing line (mutant-RAS cell line): failed to show selectivity

C[C@@]12c3ccc4c(c3C(=O)c3occ(c31)C(=O)C[C@H]2O)CCC4=O [demethoxyviridin]
inhibition of downstream components of the RAS pathway [1]: inhibit downstream components of the RAS pathway

c1ccc(-c2nn(-c3ccccc3)[n+](-c3ccccc3)n2)cc1 [TPT, Triphenyltetrazolium]
IC50 on KO [2]: ~12 µg/mL
inhibition of c-Raf-1 (c-Raf-1): little or no reproducible inhibition
inhibition of p38 (p38): little or no reproducible inhibition
selectivity for inhibiting the growth of the mutant c-Ki-RAS cell line (DLD-1) ([3]; DLD-1 versus KO): ~6 fold
IC50 on DLD-1 ([3]; concentration and time course experiments, co-cultured cells (FIG. 5)): ~2 µg/mL
inhibition of c-Jun kinases (c-Jun kinases): little or no reproducible inhibition
